Measurements: ChEMBL document CHEMBL5446079, “Affinity Biochemical Literature for EUbOPEN Chemogenomic Library” (2024)

Key:
[1] = biological target: T1, Casein kinase I isoform alpha (Homo sapiens, UniProt P48729)
[2] = biological target: T2, Casein kinase I isoform epsilon (Homo sapiens, UniProt P49674)
[3] = biological target: T3, Casein kinase I isoform delta (Homo sapiens, UniProt P48730)
[4] = biological target: T2, Casein kinase I isoform epsilon; remark: listed apart in the source
[5] = biological target: T1, Casein kinase I isoform alpha; remark: listed apart in the source
[6] = biological target: T3, Casein kinase I isoform delta; remark: listed apart in the source
[7] = biological target: T4, Inhibitor of nuclear factor kappa-B kinase subunit beta (Homo sapiens, UniProt O14920)
T4 sequence (O14920 whole entry): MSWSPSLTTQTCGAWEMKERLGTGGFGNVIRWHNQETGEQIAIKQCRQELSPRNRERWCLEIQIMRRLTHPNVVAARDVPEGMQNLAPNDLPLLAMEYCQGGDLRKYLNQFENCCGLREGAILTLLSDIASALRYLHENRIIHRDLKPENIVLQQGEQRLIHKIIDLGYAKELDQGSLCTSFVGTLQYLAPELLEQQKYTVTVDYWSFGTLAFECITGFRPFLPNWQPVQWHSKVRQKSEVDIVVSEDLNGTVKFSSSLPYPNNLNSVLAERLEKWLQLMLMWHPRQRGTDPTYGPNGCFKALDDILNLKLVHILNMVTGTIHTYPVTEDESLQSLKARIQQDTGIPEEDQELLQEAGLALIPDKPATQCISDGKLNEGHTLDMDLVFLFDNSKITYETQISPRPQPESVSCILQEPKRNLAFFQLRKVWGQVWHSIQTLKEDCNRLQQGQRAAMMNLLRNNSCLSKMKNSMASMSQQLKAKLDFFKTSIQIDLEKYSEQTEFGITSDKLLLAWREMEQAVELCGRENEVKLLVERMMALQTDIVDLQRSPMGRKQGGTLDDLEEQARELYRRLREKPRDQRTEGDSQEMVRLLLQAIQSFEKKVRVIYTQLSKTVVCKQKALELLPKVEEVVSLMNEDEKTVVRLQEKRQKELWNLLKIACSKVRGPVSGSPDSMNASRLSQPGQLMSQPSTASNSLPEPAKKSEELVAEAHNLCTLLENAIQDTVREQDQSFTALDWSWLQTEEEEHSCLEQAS

T2 sequence (P49674 whole entry, canonical isoform): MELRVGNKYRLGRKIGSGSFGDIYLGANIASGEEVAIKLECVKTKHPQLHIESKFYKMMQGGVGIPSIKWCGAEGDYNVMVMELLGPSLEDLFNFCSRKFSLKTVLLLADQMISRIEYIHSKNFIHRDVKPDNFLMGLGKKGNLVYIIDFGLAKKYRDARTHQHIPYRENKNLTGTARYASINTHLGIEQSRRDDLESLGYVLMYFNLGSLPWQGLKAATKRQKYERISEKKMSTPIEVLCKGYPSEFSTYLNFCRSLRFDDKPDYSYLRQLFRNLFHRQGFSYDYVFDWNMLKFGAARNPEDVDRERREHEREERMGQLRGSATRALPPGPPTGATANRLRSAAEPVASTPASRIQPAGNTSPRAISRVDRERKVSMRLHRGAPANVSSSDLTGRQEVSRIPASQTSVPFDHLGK
T3 sequence (P48730 whole entry, canonical isoform): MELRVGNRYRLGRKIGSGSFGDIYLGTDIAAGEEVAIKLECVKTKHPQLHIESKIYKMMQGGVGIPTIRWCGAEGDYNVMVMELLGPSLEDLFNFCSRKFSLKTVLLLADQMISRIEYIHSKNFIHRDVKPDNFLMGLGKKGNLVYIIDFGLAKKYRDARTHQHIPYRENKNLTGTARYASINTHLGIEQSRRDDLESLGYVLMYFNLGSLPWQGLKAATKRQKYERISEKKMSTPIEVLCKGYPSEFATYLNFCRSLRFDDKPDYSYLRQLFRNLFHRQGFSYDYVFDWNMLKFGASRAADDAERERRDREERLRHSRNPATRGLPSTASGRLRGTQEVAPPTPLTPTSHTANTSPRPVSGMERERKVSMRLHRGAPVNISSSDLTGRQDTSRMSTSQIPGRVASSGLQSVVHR
T1 sequence (P48729 whole entry, canonical isoform): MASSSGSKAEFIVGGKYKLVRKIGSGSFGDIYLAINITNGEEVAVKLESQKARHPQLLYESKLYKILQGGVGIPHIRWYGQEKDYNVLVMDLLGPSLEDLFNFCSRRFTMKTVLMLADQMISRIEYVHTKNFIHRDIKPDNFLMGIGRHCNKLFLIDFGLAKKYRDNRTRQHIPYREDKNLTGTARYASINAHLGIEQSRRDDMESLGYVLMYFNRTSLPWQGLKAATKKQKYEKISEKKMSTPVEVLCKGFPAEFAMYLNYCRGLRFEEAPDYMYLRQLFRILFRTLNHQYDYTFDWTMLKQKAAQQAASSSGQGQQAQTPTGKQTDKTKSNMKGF

CCc1ccc(-c2ncn(CC3(F)CCN(C)CC3)c2-c2ccnc3[nH]ccc23)nc1
IC50 [1]: > 3000 nM
IC50 [2]: > 3000 nM
IC50 [3]: > 3000 nM

CN1CCC(F)(Cn2cnc(-c3ccc(F)cn3)c2-c2ccnc3[nH]ccc23)CC1
IC50 [4]: 27.3 nM
IC50 [5]: 7.2 nM
IC50 [6]: 6.1 nM

CN(C)C(=O)c1sc2nc(N3CCC(S(C)(=O)=O)CC3)cc(C(F)(F)F)c2c1N [BI-5026]
IC50 [7]: > 10000 nM
